Laboratory results from US6916471B2, “Red blood cells loaded with S-nitrosothiol and uses therefor” (Duke University, priority 1995, dated 2005).

Legend:
[1] = tested on: rabbit aortic ring; assay: Rabbit aortic ring bioassay of CYSNO-treated blood with or without glutathione; conditions: 100 μM
Procedure: NO-loaded red blood cells were produced by incubating whole human blood in a solution comprising S-nitrosocysteine (CYSNO) at a molar ratio of 1:100 CYSNO:hemoglobin for 5 minutes at room temperature. The bioactivity of the treated blood was tested in a rabbit aortic ring bioassay, in the presence (+GSH) or absence (−GSH) of 100 μM glutathione.

[2] = tested on: rabbit aortic ring; assay: Rabbit aortic ring perfused with blood of PPH patient after ethyl nitrite; conditions: 1% oxygen
From the text: The downward deflection on the plot indicates a dilation of the blood vessel, which for the “NO” blood, occurred for approximately 30 seconds.

[3] = tested on: patient with primary pulmonary hypertension; assay: Inhaled ethyl nitrite in patients with primary pulmonary hypertension, red blood cell NO; assay type: in vivo, human; conditions: PPH patients
Procedure: A patient with primary pulmonary hypertension, with blood having starting values for SNO-hemoglobin, iron nitrosylhemoglobin and total NO/hemoglobin molar ratio as shown in the left bar of FIG. 15, was given an NO-donating drug by inhalation. Ethyl nitrite was diluted in ethanol. Oxygen carrier gas was passed though the ethyl nitrite solution and delivered to the patient at 10 liters/min. After 10 minutes, blood was withdrawn and analyzed by photolysis chemoluminescence. Results are shown in the right bar of FIG. 15, for the patient's blood after treatment. SNO-Hb and total Hb-bound NO levels were depressed in the patient relative to normal controls, but rose during inhalation of ethyl nitrite gas. The experiment was repeated for other patients (n=5).

[4] = tested on: rabbit aortic ring; assay: CysNOEE-treated human blood, rabbit aortic ring bioassay; conditions: CysNOEE:heme 1:100 to 10:1; 21% and 1% oxygen
Procedure: S-nitrosocysteine ethyl ester (CysNOEE) was added to human whole blood to interact with the red blood cells. CysNOEE:Heme (see FIG. 22) is the molar ratio of CysNOEE to heme in hemoglobin contained in red blood cells, for CysNOEE incubated with blood for 5 minutes at room temperature. After these incubations at different CysNOEE:heme ratios (1:100, 1:10, 1:1 and 10:1; see FIG. 22), red blood cell membranes were isolated by lysis and centrifugation, and S-nitrosothiol (SNO) content of the isolated membranes was determined by photolysis chemiluminescence assay. The concentrations of SNO in the red blood cell membranes were plotted in FIG. 22 as membrane SNO. Bioactivity of red blood cells—from release of biologically active NO—was determined in a rabbit aortic ring bioassay under two different concentrations of oxygen, and the results are plotted in FIG. 22 as 21% oxygen, vasoactivity, and 1% oxygen, vasoactivity.

[5] = Endogenous SNO-Hb and Hb(FeII)NO in blood by photolysis-chemiluminescence; assay type: in vivo, rat; conditions: 45 minutes after infusion, 50 mg/kg
From the text: To determine if SNO-Hb is naturally occuring in the blood, and if so, its relationship to the O2 transport capacity and nitrosylated-heme content of red cells, we developed an analytical approach to assay the S-nitrosothiol and nitrosyl-heme content of erythrocytes (Table 2). […] Hb was then purified from red cells and assayed for RSNO and (FeII)NO content. Arterial blood contained significant levels of SNO-Hb, whereas levels were virtually undetectable in venous blood (Table 2). […] The arterial-venous distribution seen for SNO-Hb was reversed in the case of Hb(FeII)NO, which was detected in higher concentrations in partially deoxygenated (venous) erythrocytes (Table 2). […] However, levels of Hb(FeII)NO in vivo are typically too low to be detected (by EPR) and SNO-Hb is EPR-silent (i.e. it is not paramagnetic). Thus, photolysis-chemiluminesence represents an important technological advance, as it is the first methodology capable of making quantitative and functional assessments of NO binding to Hb under normal physiological conditions.
Blood was obtained from the left ventricle (arterial) and jugular vein (venous) of anesthetized Sprague-Dawley rats. […] In 24 rats, Hb samples were divided in two aliquots which were then treated or not treated with 10-fold excess HgCl2 over protein concentration as measured by the method of Bradford. […]

[6] = tested on: Sprague-Dawley rat; assay: Mean arterial pressure after femoral vein injection of loaded red blood cells; assay type: in vivo; conditions: 50 mg/kg
From the text: Systemic administration of cell-free Hb results in hypertensive responses which have been attributed to NO scavenging by the heme (Vogel, W. M., et al., Am. J. Physiol. 251:H413-H420 (1986); Olsen, S. B., et al., Circulation 93:329-332 (1996)). To determine if SNO-Hb is free of this adverse affect, and to explore if in vitro mechanisms of NO release extend to the in vivo circumstance, we compared responses to Hb and SNO-Hb infused as a bolus into the femoral vein of anesthetized rats. […] Thus, the profiles of these compounds in vivo closely resemble those seen in vitro (FIG. 4A). […] These changes in mean blood pressure of ˜10% are on the order of those that differentiate normotension from hypertension in man, and in the therapeutic range of some antihypertensive regimens. […] The bioactivity of SNO-Hb in blood, where S—NO/heme stoichiometries approach 1:50,000, is a dramatic illustration of the resistence of this NO-related activity to Hb(Fe) inactivation. […]
Rats were anesthetized by intraperitoneal injection of pentobarbital and the femoral arteries and veins accessed by local cut down. The artery was then cannulated and the blood pressure monitored continuously using a Viggo Spectramed pressure transducer attached to a Gould recorder. […]

Q: With `N[C@@H](CCC(=O)N[C@@H](CS)C(=O)NCC(=O)O)C(=O)O` [Glutathione, glutathione] as the molecule, how does the “effect on red blood cell-mediated vasodilation” value [1] read?
A: Its value is “potentiates the bioactivity of red blood cell-mediated vasodilation”.

Q: Which results are given for `CCON=O` [ethyl nitrite]?
A: duration of dilation of aortic ring by blood of treated patient [2]: approximately 30 seconds; increase in SNO-Hb in blood ([3]; inhaled for 10 minutes, n=5): statistically significant; levels of iron nitrosylhemoglobin before and after treatment ([3]; inhaled for 10 minutes, n=5): no statistical difference; pulmonary vascular resistance and systemic oxygenation ([3]; inhaled): decreases in pulmonary vascular resistance and improved systemic oxygenation

Q: Which “vasoactivity of treated red blood cells” value [4] does the source give for `CCOC(=O)[C@@H](N)CSN=O` [S-nitrosocysteine ethyl ester] here?
A: Its value is “relaxes blood vessels, most effectively under ischemic conditions”.

Q: Which results are given for `CNC(=N)NCCC[C@H](N)C(=O)O` [L-NMMA, N^G-monomethyl-L-arginine]?
A: depletion of SNO-Hb [5]: 82%; depletion of total Hb-NO [5]: 50±18%; increase in blood pressure [6]: about 20 mm Hg
